The values below come from ChEMBL document CHEMBL4229343, “Perfluoroarene-based peptide macrocycles that inhibit the Nrf2/Keap1 interaction” (Bioorg Med Chem Lett, 2018).

*1 amine or outer side, *2 acyl side, *3 side chain or, on linkers, in order; H or OH if unused. Where a SMILES comes first, the peptide text is derived from it. Bridges are numbered along the chain shown (N, C = ends). C6F4(1,4-diyl) = Fc1c(F)c([*:2])c(F)c(F)c1[*:1]

For the first data set, the target named is Kelch-like ECH-associated protein 1 (Homo sapiens, UniProt Q14145). Put plainly: Displacement of F-14 from Keap1 Kelch domain (unknown origin) expressed in Escherichia coli BL21 (DE3) after 15 mins by fluorescence polarization assay.
Sequence of Kelch-like ECH-associated protein 1 (Q14145 whole entry, the tested form may be a part): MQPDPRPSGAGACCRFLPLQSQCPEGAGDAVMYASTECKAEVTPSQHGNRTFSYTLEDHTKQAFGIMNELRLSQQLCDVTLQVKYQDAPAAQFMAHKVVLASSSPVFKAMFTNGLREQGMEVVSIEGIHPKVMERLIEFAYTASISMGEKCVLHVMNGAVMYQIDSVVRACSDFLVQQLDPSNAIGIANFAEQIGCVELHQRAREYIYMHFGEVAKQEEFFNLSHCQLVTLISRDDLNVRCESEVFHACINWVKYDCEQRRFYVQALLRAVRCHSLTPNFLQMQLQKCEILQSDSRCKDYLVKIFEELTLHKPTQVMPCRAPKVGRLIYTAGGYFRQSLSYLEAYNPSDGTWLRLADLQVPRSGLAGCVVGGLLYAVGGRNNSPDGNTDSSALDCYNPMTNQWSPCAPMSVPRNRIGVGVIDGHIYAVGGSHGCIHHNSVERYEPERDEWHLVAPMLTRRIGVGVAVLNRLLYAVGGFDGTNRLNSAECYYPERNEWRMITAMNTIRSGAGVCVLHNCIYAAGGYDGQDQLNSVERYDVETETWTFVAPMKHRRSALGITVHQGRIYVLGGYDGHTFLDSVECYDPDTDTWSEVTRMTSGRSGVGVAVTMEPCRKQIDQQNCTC
For orientation: Ki means a dissociation constant, usually derived from enzyme kinetics or from competition with a known ligand. A higher Ki goes with a looser hold on the target. Compound `CC(=O)N[C@H]1CSSC[C@@H](C(N)=O)NC(=O)CNC(=O)[C@H]([C@@H](C)O)NC(=O)[C@H](CCC(=O)O)NC(=O)[C@H](CCC(=O)O)NC1=O` (Ac-CEETGC-NH2; disulfide 1-6) had an inhibition constant (Ki) of 151 µM.

The test system of a further data set is THP-1. The data set is described as follows: Antiproliferative activity against human THP1 cells. Type of data set: cell-based.
Consider `CC(=O)N[C@H]1CSc2c(F)c(F)c(c(F)c2F)SC[C@@H](C(N)=O)NC(=O)[C@H](CCC(=O)O)NC(=O)CNC(=O)[C@H]([C@@H](C)O)NC(=O)[C@H](CCC(=O)O)NC(=O)[C@@H]2CCCN2C(=O)[C@H](CC(=O)O)NC1=O`, for which the Activity result is “Non-Toxic”. In the case of `CC(=O)N[C@H]1CSSC[C@@H](C(N)=O)NC(=O)[C@H](CCC(=O)O)NC(=O)CNC(=O)[C@H]([C@@H](C)O)NC(=O)[C@H](CCC(=O)O)NC(=O)[C@H](CCC(=O)O)NC(=O)[C@H](CC(=O)O)NC1=O` (Ac-CDEETGEC-NH2; disulfide 1-8), the Activity entry was “Non-Toxic”. `CC(=O)N[C@H]1CSSC[C@@H](C(=O)O)NC(=O)[C@H](CCC(=O)O)NC(=O)CNC(=O)[C@H]([C@@H](C)O)NC(=O)[C@H](CCC(=O)O)NC(=O)[C@H](CCC(=O)O)NC(=O)[C@H](CC(=O)O)NC1=O` (Ac-CDEETGEC-OH; disulfide 1-8): the Activity entry is reported as “Non-Toxic”. For the compound `CC(=O)N[C@H]1CSSC[C@@H](C(N)=O)NC(=O)CNC(=O)[C@H]([C@@H](C)O)NC(=O)[C@H](CCC(=O)O)NC(=O)[C@H](CCC(=O)O)NC1=O` (Ac-CEETGC-NH2; disulfide 1-6), the Activity result is on record as “Non-Toxic”. Turning to `CC(=O)N[C@H]1CSSC[C@@H](C(N)=O)NC(=O)[C@H](Cc2ccccc2)NC(=O)[C@H](CCC(=O)O)NC(=O)CNC(=O)[C@H]([C@@H](C)O)NC(=O)[C@H](CCC(=O)O)NC(=O)[C@H](CCC(=O)O)NC(=O)[C@H](CC(=O)O)NC(=O)[C@H](CC(C)C)NC1=O` (Ac-CLDEETGEFC-NH2; disulfide 1-10), the Activity result is recorded as “Non-Toxic”. Turning to `CC(=O)N[C@H]1CSc2c(F)c(F)c(c(F)c2F)SC[C@@H](C(N)=O)NC(=O)[C@H](Cc2ccccc2)NC(=O)[C@H](CCC(=O)O)NC(=O)CNC(=O)[C@H]([C@@H](C)O)NC(=O)[C@H](CCC(=O)O)NC(=O)[C@@H]2CCCN2C(=O)[C@H](CC(=O)O)NC(=O)[C@H](CC(C)C)NC1=O` (Ac-CLDPETGEFC-NH2; linker 1-10 via C6F4(1,4-diyl)), the Activity entry is “Non-Toxic”. Turning to `C[C@@H](O)[C@@H]1NC(=O)[C@H](CCC(=O)O)NC(=O)[C@H](CCC(=O)O)NC(=O)[C@H](CC(=O)O)NC(=O)[C@@H](N)CSSC[C@@H](C(N)=O)NC(=O)[C@H](CCC(=O)O)NC(=O)CNC1=O` (H-CDEETGEC-NH2; disulfide 1-8), the Activity result is on record as “Non-Toxic”.
